# Measured values taken from US11401278B2, “Macrocyclic indole derivatives” (The Broad Institute, Inc., priority 2017, dated 2022).
# Structures can show the parent of a compound that is named as a salt. Where two headings read alike, the source gives them in different places.
# Key:
# BCL-2 = BCL-2 (Homo sapiens (Human), UniProt P10415); test: Protein-protein interaction assay BCL-2/Bad BH3 peptide (BCL-2 assay, TR-FRET); type: binding; details: His-BCL-2 / Bad BH3 peptide, median
# Method: Assay 3 Protein-Protein Interaction Assay: BCL-2/Bad BH3 Peptide (BCL-2 Assay)
# The dose-dependent inhibition by the compounds described in this invention of the interaction between BCL-2 and the BH3 domain of Bad (both human) was determined using a steady state binding competition assay with time-resolved fluorescence energy transfer (TR-FRET) readout. For that purpose BCL-2 (amino acids 1-211, C-terminal fused to a hexahistidine (6×His) tag (SEQ ID 5) and a synthetic Bad BH3-derived peptide of sequence Biotin-PEG2-PEG2-NLWAAQRYGRELRR-Nle-SDEFVDSFKK-amide (SEQ ID 4) served as protein receptor and tracer ligand respectively. The recombinant BCL-2 protein (expressed in E. coli) was purchased from BPS Bioscience (San Diego, Calif., USA). The Bad BH3-derived peptide can be obtained from e.g. Biosyntan (Berlin, Germany).
# In the assay 11 different concentrations of each compound (0.1 nM, 0.33 nM, 1.1 nM, 3.8 nM, 13 nM, 44 nM, 0.15 μM, 0.51 μM, 1.7 μM, 5.9 μM and 20 μM) were typically measured as duplicates in the same microtiter plate. For that, 100-fold concentrated DMSO solutions were prepared by serial dilutions (1:3.4) of a 2 mM stock solution in a clear, 384-well microtiter plate (Greiner Bio-One, Frickenhausen, Germany). From there, 50 nl were transferred in a dark test plate (Greiner Bio-One, Frickenhausen, Germany). The assay was initiated by addition of 2 μl of a 2.5-fold concentrated His-BCL-2 solution (usually for a 1 nM end concentration in 5 μl reaction volume) in aqueous assay buffer [50 mM Tris/HCl pH 7, 100 mM sodium chloride (NaCl), 50 mM potassium fluoride (KF), 0.005% Tween-20, 2 mM DTT, 0.1% bovine gamma globulin (BGG)] to the compounds in the assay plate. This was followed by a 10-minute incubation step at 22° C. for pre-equilibration of the putative complex between His-BCL-2 and the compounds. After that, 3 μl of a 1.67-fold concentrated solution (in assay buffer) consisting of Bad BH3-derived peptide (1 nM end concentration) and TR-FRET detection reagents [1.67 nM anti-His-Eu cryptate and 1.67 nM streptavidin-XL665 (both from Cisbio Bioassays, Codolet, France)], were added.
# The mixture was incubated in the dark for one hour at 22° C. and then overnight at 4° C. The formation of BCL-2/Bad complexes was determined by measuring the resonance energy transfer of the anti-His-Eu-cryptate antibody to the streptavidin-XL665 present in the reaction. For that purpose, the fluorescence emission at 620 nm and 665 nm after excitation at 330-350 nm was measured in a TR-FRET measuring instrument, for instance a Rubystar or a Pherastar (both from BMG Lab Technologies, Offenburg, Germany) or a Viewlux (Perkin-Elmer). The ratio of the emission at 665 nm and at 622 nm was used as indicator of the amount of BCL-2/Bad complexes present.
# The resulting data (ratio) were normalized, taking 0% inhibition as the mean value of control measurements (usually 32 data points) where all reagents were included. In this case 50 nl DMSO were used instead of compounds. A 100% inhibition corresponded to the mean value of control measurements (usually 32 data points) where all reagents except BCL-2 were included. IC50 values were determined by regression analysis based on a 4 parameter equation (minimum, maximum, IC50, Hill; Y=Max+(Min−Max)/(1+(X/IC50)^HiII) using the Screener Software (Genedata).
# SUDHL5 [1] = test: Induction of caspase-3/7 activity (Assay 4), SUDHL5; type: cell-based; details: caspase-3/7 induction, median
# Outline: (§1)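 DLBCL cells were exposed to compounds for 3 hours at 37 °C, then caspase-3/7 activation was read with Caspase-Glo 3/7 reagent. After subtracting medium-only background, EC50s were derived with fixed C0=1 and the reference compound's maximal induction as plateau.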
# SUDHL10 [2] = test: Induction of caspase-3/7 activity (Assay 4), SUDHL10; type: cell-based; details: caspase-3/7 induction, median
# Outline: as §1
# SUDHL5 [3] = test: Antiproliferation assay (Assay 7), SUDHL5; type: cell-based; details: CellTiter-Glo, median, read-out: Antiproli SUDHL5 [M] (median) IC50
# Outline: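 Plate cells in treatment and day 0 reference plates; read day 0 plate with CellTiter-Glo after 10 min; incubate treated plates 72 h at 37° C; read them identically.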
# SUDHL5 [4] = test: Induction of cytotoxicity (Assay 6), SUDHL5; details: read-out: Cytotox SUDHL5 [M] (median) IC50, CellTiter-Glo, 5 hours, SUDHL5
# SUDHL10 [5] = test: Induction of cytotoxicity (Assay 6), SUDHL10; details: read-out: Cytotox SUDHL10 [M] (median) IC50, CellTiter-Glo, 5 hours, SUDHL10
# BCL-2, sequence (P10415 other isoform, or with tags, fused parts or gaps): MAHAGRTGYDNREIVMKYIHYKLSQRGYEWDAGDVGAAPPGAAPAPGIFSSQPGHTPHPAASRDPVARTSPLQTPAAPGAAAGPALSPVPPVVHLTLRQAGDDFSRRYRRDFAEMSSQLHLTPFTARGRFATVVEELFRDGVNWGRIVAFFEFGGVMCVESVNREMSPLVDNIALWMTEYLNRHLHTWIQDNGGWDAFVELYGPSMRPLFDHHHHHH
Compound,IC50 (BCL-2) [µM],"EC50 (SUDHL5 [1]; Homo sapiens, SU-DHL-5, 3 h) [µM]","EC50 (SUDHL10 [2]; Homo sapiens, SU-DHL10, 3 h) [µM]","IC50 (SUDHL5 [3]; Homo sapiens, SU-DHL-5, 72 h) [M]",EC50 (SUDHL5 [1]; 3 hours) [µM],EC50 (SUDHL10 [2]; 3 hours) [µM],IC50 (SUDHL5 [3]; 72 hours) [M],"IC50 (SUDHL5 [4]; Homo sapiens, SU-DHL-5, 5 h) [M]","IC50 (SUDHL10 [5]; Homo sapiens, SU-DHL10, 5 h) [M]",IC50 (SUDHL5 [4]) [M],IC50 (SUDHL10 [5]) [M]
"Cc1c2c(nn1C)CN(CCN1CCOCC1)S(=O)(=O)CCCn1c(C(=O)O)c(CCCOc3cccc4ccccc34)c3cccc-2c31 (racemic) [Example 1, (rac)-2,3-Dimethyl-14-[2-(morpholin-4-yl)ethyl]-7-{3-[(naphthalen-1-yl)oxy]propyl}-13,13-dioxo-10,11,12,13,14,15-hexahydro-2H-13λ^6-pyrazolo[3′,4′:4,5][1,2,8]thiadiazacycloundecino-[6,7,8-hi]indole-8-carboxylic acid]",> 20,4.8,14,7.2e-06,,,,6.7e-06,1.3e-05,,
"Cc1c2c(nn1C)CNS(=O)(=O)CCCn1c(C(=O)O)c(CCCOc3cccc4cc(F)ccc34)c3ccc(Cl)c-2c31 (racemic) [Example 50, (rac)-4-chloro-7-{3-[(6-fluoro-1-naphthyl)oxy]propyl}-2,3-dimethyl-11,12,14,15-tetrahydro-2H,10H-pyrazolo[3′,4′:4,5][1,2,8]thiadiazacycloundecino[6,7,8-hi]indole-8-carboxylic acid 13,13-dioxide]",> 20,0.65,2.8,2e-06,,,,1.4e-06,3.8e-06,,
"Cc1c2c(nn1C)CNS(=O)(=O)CCCn1c(C(=O)O)c(CCCOc3cccc4cc(F)ccc34)c3ccc(Cl)c-2c31 (single isomer, unassigned; enantiomer 1) [Example 51, 4-chloro-7-{3-[(6-fluoronaphthalen-1-yl)oxy]propyl}-2,3-dimethyl-13,13-dioxo-10,11,12,13,14,15-hexahydro-2H-13lambda^6-pyrazolo[3′,4′:4,5][1,2,8]thiadiazacycloundecino[6,7,8-hi]indole-8-carboxylic acid (Enantiomer 1)]",> 20,,,,0.34,0.49,4.1e-07,,,5e-07,9.8e-07
"Cc1c2c(nn1C)C(N1CCOCC1)CCN(C)S(=O)(=O)CCCn1c(C(=O)O)c(CCCOc3cccc4cc(F)ccc34)c3ccc(Cl)c-2c31 (racemic) [Example 47, (rac)-15-chloro-1-(3-((6-fluoronaphthalen-1-yl)oxy)propyl)-8,13,14-trimethyl-11-(rac)-morpholino-5,6,9,10,11,13-hexahydro-4H,8H-pyrazolo[3′,4′:6,7][1]thia[2,10]diazacyclotridecino[8,9,10-hi]indole-2-carboxylic acid 7,7-dioxide (Mixture of Stereoisomers)]",> 20,0.22,0.32,6.3e-07,,,,3.6e-07,3.4e-07,,
"Cc1c2c(nn1C)C(CCN1CCOCC1)N(C)S(=O)(=O)CCCn1c(C(=O)O)c(CCCOc3cccc4cc(F)ccc34)c3ccc(Cl)c-2c31 (racemic) [Example 48, (rac)-4-chloro-7-{3-[(6-fluoro-1-naphthyl)oxy]propyl}-2,3,14-trimethyl-15-(rac)-[2-(morpholin-4-yl)ethyl]-11,12,14,15-tetrahydro-2H,10H-pyrazolo[3′,4′:4,5][1,2,8]thiadiazacycloundecino[6,7,8-hi]indole-8-carboxylic acid 13,13-dioxide (Mixture of Stereoisomers)]",> 20,,,3.1e-08,0.013,0.0097,,,,1.4e-08,1.2e-08

# The next lines start with results.
IC50 (BCL-2) [µM],"EC50 (SUDHL5 [1]; Homo sapiens, SU-DHL-5, 3 h) [µM]","EC50 (SUDHL10 [2]; Homo sapiens, SU-DHL10, 3 h) [µM]","IC50 (SUDHL5 [3]; Homo sapiens, SU-DHL-5, 72 h) [M]",EC50 (SUDHL5 [1]; 3 hours) [µM],EC50 (SUDHL10 [2]; 3 hours) [µM],IC50 (SUDHL5 [3]; 72 hours) [M],Compound,"IC50 (SUDHL5 [4]; Homo sapiens, SU-DHL-5, 5 h) [M]","IC50 (SUDHL10 [5]; Homo sapiens, SU-DHL10, 5 h) [M]",IC50 (SUDHL5 [4]) [M],IC50 (SUDHL10 [5]) [M]
> 20,4.8,14,7.2e-06,,,,"CCc1c2c(nn1C)CN(CCN1CCOCC1)S(=O)(=O)CCCn1c(C(=O)O)c(CCCOc3cccc4cc(F)ccc34)c3ccc(Cl)c-2c31 [Example 77, (rac)-13-chloro-12-ethyl-1-(3-((6-fluoronaphthalen-1-yl)oxy)propyl)-11-methyl-8-(2-morpholinoethyl)-5,6,9,11-tetrahydro-4H,8H-pyrazolo[3′,4′:4,5][1]thia[2,8]diazacycloundecino[6,7,8-hi]indole-2-carboxylic acid 7,7-dioxide]",6.7e-06,1.3e-05,,
> 20,,,,> 33,> 33,1.5e-05,"Cc1c2c(nn1C)CN(CCN1CCOCC1)S(=O)(=O)CCCn1c(C(=O)O)c(CCCOc3cccc4ccccc34)c3cccc-2c31 (single isomer, unassigned; enantiomer 2) [Example 3, 2,3-Dimethyl-14-[2-(morpholin-4-yl)ethyl]-7-{3-[(naphthalen-1-yl)oxy]propyl}-13,13-dioxo-10,11,12,13,14,15-hexahydro-2H-13λ^6-pyrazolo[3′,4′:4,5][1,2,8]thiadiazacycloundecino-[6,7,8-hi]indole-8-carboxylic acid-N-ethylethanamine salt (Enantiomer 2)]",,,> 3.3e-05,> 3.3e-05
> 20,1.3,3.6,8.2e-07,,,,"CCc1c2c(nn1C)CN(C)S(=O)(=O)CCCn1c(C(=O)O)c(CCCOc3cccc4c3CCCC4)c3ccc(F)c-2c31 (racemic) [Example 34, (rac)-12-Ethyl-13-fluoro-8,11-dimethyl-1-(3-((5,6,7,8-tetrahydronaphthalen-1-yl)oxy)propyl)-5,6,9,11-tetrahydro-4H,8H-pyrazolo[3′,4′:4,5][1]thia[2,8]diazacycloundecino[6,7,8-hi]indole-2-carboxylic acid 7,7-dioxide]",1.4e-06,2.4e-06,,
20,0.21,0.27,8.5e-07,,,,"COc1ccc(CN2Cc3nn(C)c(C)c3-c3c(Cl)ccc4c(CCCOc5cccc6cc(F)ccc56)c(C(=O)O)n(c34)CCCS2(=O)=O)c(OC)c1 (racemic) [Example 49, (rac)-4-chloro-14-(2,4-dimethoxybenzyl)-7-{3-[(6-fluoro-1-naphthyl)oxy]propyl}-2,3-dimethyl-11,12,14,15-tetrahydro-2H,10H-pyrazolo[3′,4′:4,5][1,2,8]thiadiazacycloundecino[6,7,8-hi]indole-8-carboxylic acid 13,13-dioxide]",1.8e-07,2.2e-07,,
